Measurements taken from patent US20240058464A1 (Fortis Therapeutics, Inc., priority 2021, published 2024).

Key:
[1] = tested on: CD46 expression; assay: CD46 expression by RNA-sequencing in unpaired pre-treatment and post-treatment tumor biopsies; type: in vivo, human; settings: for CD46 expression Post: post-treatment biopsies; for CD46 expression Pre: pre-treatment biopsies
[2] = tested on: CD46 expression; assay: CD46 expression by RNA-sequencing in paired tumor biopsies before and after therapy; settings: paired biopsies; for CD46 expression, Post-Treatment Biopsy / CD46 expression, Pre-Treatment Biopsy: RNA-seq log2-transformed counts;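 for all read-outs here: FFPE human tumor biopsies, exome-capture RNA-seq, reads aligned to GRCh37, counts normalized for GC content, length and depth, summed per gene, log2-transformed, samples paired before versus after therapy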
[3] = Biliary Cancer, Post minus Pre, unpaired biopsies, log2-transformed counts
[4] = Biliary Cancer, post- vs pre-treatment unpaired biopsies
[5] = Biliary Cancer, unpaired, RNA-seq log2-transformed normalized counts
[6] = Breast Cancer, Post minus Pre, unpaired biopsies, log2-transformed counts
[7] = Breast Cancer, post- vs pre-treatment unpaired biopsies
[8] = Breast Cancer, unpaired, RNA-seq log2-transformed normalized counts
[9] = Colorectal Cancer, Post minus Pre, unpaired biopsies, log2-transformed counts
[10] = Colorectal Cancer, post- vs pre-treatment unpaired biopsies
[11] = Colorectal Cancer, unpaired, RNA-seq log2-transformed normalized counts
[12] = Pancreatic Cancer, Post minus Pre, unpaired biopsies, log2-transformed counts
[13] = Pancreatic Cancer, post- vs pre-treatment unpaired biopsies
[14] = Pancreatic Cancer, unpaired, RNA-seq log2-transformed normalized counts
[15] = Non-Small Cell Lung Cancer, Post minus Pre, unpaired biopsies, log2-transformed counts
[16] = Non-Small Cell Lung Cancer, post- vs pre-treatment unpaired biopsies
[17] = Non-Small Cell Lung Cancer, unpaired, RNA-seq log2-transformed normalized counts
[18] = Bladder Cancer, log2-transformed RNA-seq counts
[19] = Ovarian Cancer, Post minus Pre, unpaired biopsies, log2-transformed counts
[20] = Ovarian Cancer, post- vs pre-treatment unpaired biopsies
[21] = Ovarian Cancer, unpaired, RNA-seq log2-transformed normalized counts
[22] = Endometrial Cancer, log2-transformed RNA-seq counts

Compound: CCCCCOC(=O)Nc1nc(=O)n([C@@H]2O[C@H](C)[C@@H](O)[C@H]2O)cc1F [capecitabine]
- CD46 expression diff [1, 3]: 0.10
- CD46 expression Percentage change [1, 4]: 1.8%
- CD46 expression Post [1, 5]: 5.87
- CD46 expression diff [1, 6]: −0.07
- CD46 expression Percentage change [1, 7]: −1.2%
- CD46 expression Post [1, 8]: 6.15
- CD46 expression diff [1, 9]: 0.05
- CD46 expression Percentage change [1, 10]: 0.8%
- CD46 expression Post [1, 11]: 6.43
- CD46 expression diff ([1]; Endocrine Tumor, Post minus Pre, unpaired biopsies, log2-transformed counts): 0.06
- CD46 expression Percentage change ([1]; Endocrine Tumor, post- vs pre-treatment unpaired biopsies): 1.1%
- CD46 expression Post ([1]; Endocrine Tumor, unpaired, RNA-seq log2-transformed normalized counts): 5.66
- CD46 expression diff ([1]; Esophageal Cancer, Post minus Pre, unpaired biopsies, log2-transformed counts): 0.05
- CD46 expression Percentage change ([1]; Esophageal Cancer, post- vs pre-treatment unpaired biopsies): 0.8%
- CD46 expression Post ([1]; Esophageal Cancer, unpaired, RNA-seq log2-transformed normalized counts): 6.02
- CD46 expression diff ([1]; Gastric Cancer, Post minus Pre, unpaired biopsies, log2-transformed counts): −0.04
- CD46 expression Percentage change ([1]; Gastric Cancer, post- vs pre-treatment unpaired biopsies): −0.7%
- CD46 expression Post ([1]; Gastric Cancer, unpaired, RNA-seq log2-transformed normalized counts): 5.73
- CD46 expression diff [1, 12]: 0.07
- CD46 expression Percentage change [1, 13]: 1.2%
- CD46 expression Post [1, 14]: 5.93
- CD46 expression diff (post minus pre) ([2]; Breast Cancer): −0.06
- Percent Change in CD46 expression ([2]; Breast Cancer): −0.9%
- CD46 expression, Post-Treatment Biopsy ([2]; Breast Cancer): 6.23
- CD46 expression diff (post minus pre) ([2]; Colorectal Cancer): 0.06
- Percent Change in CD46 expression ([2]; Colorectal Cancer): 1.0%
- CD46 expression diff (post minus pre) ([2]; Pancreatic Cancer): 0.16
- Percent Change in CD46 expression ([2]; Pancreatic Cancer): 2.8%
- CD46 expression, Post-Treatment Biopsy ([2]; Pancreatic Cancer): 5.98

Compound: durvalumab
- CD46 expression diff [1, 15]: −0.03
- CD46 expression Percentage change [1, 16]: −0.5%
- CD46 expression Post [1, 17]: 6.04
- CD46 expression diff (post minus pre) ([2]; Non-Small Cell Lung Cancer): 0.00
- Percent Change in CD46 expression ([2]; Non-Small Cell Lung Cancer): 0.0%
- CD46 expression, Post-Treatment Biopsy ([2]; Non-Small Cell Lung Cancer): 5.95
- CD46 expression, Pre-Treatment Biopsy ([2]; Non-Small Cell Lung Cancer): 5.95

Compound: N.N.[Cl][Pt][Cl] [cisplatin]
- CD46 expression diff [1, 3]: −0.06
- CD46 expression Percentage change [1, 4]: −1.0%
- CD46 expression Post [1, 5]: 5.76
- CD46 expression diff ([1]; Bladder Cancer, post minus pre, unpaired biopsies): −0.19
- CD46 expression Percentage change ([1]; Bladder Cancer, post vs pre, unpaired biopsies): −3.1%
- CD46 expression Post [1, 18]: 6.00
- CD46 expression Pre [1, 18]: 6.19
- CD46 expression diff [1, 6]: 0.02
- CD46 expression Percentage change [1, 7]: 0.3%
- CD46 expression Post [1, 8]: 5.98
- CD46 expression diff ([1]; Endometrial Cancer, Post minus Pre, unpaired biopsies, log2-transformed counts): 0.26
- CD46 expression Percentage change ([1]; Endometrial Cancer, post- vs pre-treatment unpaired biopsies): 4.6%
- CD46 expression Post ([1]; Endometrial Cancer, unpaired, RNA-seq log2-transformed normalized counts): 5.99
- CD46 expression diff ([1]; Head and Neck Squamous Cell Carcinoma, Post minus Pre, unpaired biopsies, log2-transformed counts): 0.13
- CD46 expression Percentage change ([1]; Head and Neck Squamous Cell Carcinoma, post- vs pre-treatment unpaired biopsies): 2.4%
- CD46 expression Post ([1]; Head and Neck Squamous Cell Carcinoma, unpaired, RNA-seq log2-transformed normalized counts): 5.69
- CD46 expression diff [1, 15]: −0.05
- CD46 expression Percentage change [1, 16]: −0.8%
- CD46 expression Post [1, 17]: 6.11
- CD46 expression diff [1, 19]: 0.03
- CD46 expression Percentage change [1, 20]: 0.6%
- CD46 expression Post [1, 21]: 5.79
- CD46 expression diff [1, 12]: 0.18
- CD46 expression Percentage change [1, 13]: 3.1%
- CD46 expression Post [1, 14]: 6.16
- CD46 expression diff ([1]; Sarcoma, Post minus Pre, unpaired biopsies, log2-transformed counts): 0.19
- CD46 expression Percentage change ([1]; Sarcoma, post- vs pre-treatment unpaired biopsies): 3.9%
- CD46 expression Post ([1]; Sarcoma, unpaired, RNA-seq log2-transformed normalized counts): 5.02
- CD46 expression after treatment vs pre-treatment ([1]; head and neck squamous cell carcinoma, unpaired biopsies, FIG. 7): significantly higher
- CD46 expression diff (post minus pre) ([2]; Biliary Cancer): 0.15
- Percent Change in CD46 expression ([2]; Biliary Cancer): 2.6%
- CD46 expression, Post-Treatment Biopsy ([2]; Biliary Cancer): 5.97
- CD46 expression, Pre-Treatment Biopsy ([2]; Biliary Cancer): 5.82
- CD46 expression diff (post minus pre) ([2]; Bladder Cancer): 0.10
- Percent Change in CD46 expression ([2]; Bladder Cancer): 1.6%
- CD46 expression, Pre-Treatment Biopsy ([2]; Bladder Cancer): 6.15
- CD46 expression diff (post minus pre) ([2]; Non-Small Cell Lung Cancer): −0.45
- Percent Change in CD46 expression ([2]; Non-Small Cell Lung Cancer): −7.2%
- CD46 expression, Post-Treatment Biopsy ([2]; Non-Small Cell Lung Cancer): 5.85

Compound: CC(=O)O[C@@]12CO[C@@H]1C[C@H](O)[C@@]1(C)C(=O)[C@H](O)C3=C(C)[C@@H](OC(=O)[C@H](O)[C@@H](NC(=O)OC(C)(C)C)c4ccccc4)C[C@@](O)([C@@H](OC(=O)c4ccccc4)[C@H]21)C3(C)C [docetaxel]
- CD46 expression diff [1, 6]: 0.04
- CD46 expression Percentage change [1, 7]: 0.7%
- CD46 expression Post [1, 8]: 6.23
- CD46 expression diff ([1]; Gastric Cancer, post minus pre, unpaired biopsies): −0.17
- CD46 expression Percentage change ([1]; Gastric Cancer, post vs pre, unpaired biopsies): −3.0%
- CD46 expression Post ([1]; Gastric Cancer, log2-transformed RNA-seq counts): 5.59
- CD46 expression diff [1, 15]: 0.02
- CD46 expression Percentage change [1, 16]: 0.3%
- CD46 expression diff [1, 19]: 0.12
- CD46 expression Percentage change [1, 20]: 2.1%
- CD46 expression Post [1, 21]: 5.88
- CD46 expression diff ([1]; Prostate Cancer, Post minus Pre, unpaired biopsies, log2-transformed counts): −0.14
- CD46 expression Percentage change ([1]; Prostate Cancer, post- vs pre-treatment unpaired biopsies): −2.2%
- CD46 expression Post ([1]; Prostate Cancer, unpaired, RNA-seq log2-transformed normalized counts): 6.02
- CD46 expression diff ([1]; Sarcoma, post minus pre, unpaired biopsies): −0.14
- CD46 expression Percentage change ([1]; Sarcoma, post vs pre, unpaired biopsies): −2.8%
- CD46 expression Post ([1]; Sarcoma, log2-transformed RNA-seq counts): 5.00
- CD46 expression diff (post minus pre) ([2]; Breast Cancer): 0.22
- Percent Change in CD46 expression ([2]; Breast Cancer): 3.7%
- CD46 expression, Post-Treatment Biopsy ([2]; Breast Cancer): 6.19
- CD46 expression diff (post minus pre) ([2]; Prostate Cancer): −0.03
- Percent Change in CD46 expression ([2]; Prostate Cancer): −0.4%
- CD46 expression, Post-Treatment Biopsy ([2]; Prostate Cancer): 5.76

Compound: bevacizumab
- CD46 expression diff [1, 6]: 0.33
- CD46 expression Percentage change [1, 7]: 5.4%
- CD46 expression Post [1, 8]: 6.34
- CD46 expression diff [1, 9]: 0.11
- CD46 expression Percentage change [1, 10]: 1.7%
- CD46 expression Post [1, 11]: 6.53
- CD46 expression diff ([1]; Endometrial Cancer, post minus pre, unpaired biopsies): −0.26
- CD46 expression Percentage change ([1]; Endometrial Cancer, post vs pre, unpaired biopsies): −4.4%
- CD46 expression Post [1, 22]: 5.56
- CD46 expression Pre [1, 22]: 5.81
- CD46 expression diff ([1]; Glioblastoma, Post minus Pre, unpaired biopsies, log2-transformed counts): −0.02
- CD46 expression Percentage change ([1]; Glioblastoma, post- vs pre-treatment unpaired biopsies): −0.4%
- CD46 expression Post ([1]; Glioblastoma, unpaired, RNA-seq log2-transformed normalized counts): 4.79
- CD46 expression diff [1, 15]: −0.11
- CD46 expression Percentage change [1, 16]: −1.8%
- CD46 expression Post [1, 17]: 6.25
- CD46 expression diff [1, 19]: 0.03
- CD46 expression Percentage change [1, 20]: 0.5%
- CD46 expression Post [1, 21]: 5.75
- CD46 expression diff (post minus pre) ([2]; Colorectal Cancer): 0.08
- Percent Change in CD46 expression ([2]; Colorectal Cancer): 1.3%
- CD46 expression, Post-Treatment Biopsy ([2]; Colorectal Cancer): 6.33
- CD46 expression, Pre-Treatment Biopsy ([2]; Colorectal Cancer): 6.25
- CD46 expression diff (post minus pre) ([2]; Glioblastoma): 0.06
- Percent Change in CD46 expression ([2]; Glioblastoma): 1.3%
- CD46 expression, Post-Treatment Biopsy ([2]; Glioblastoma): 4.64
- CD46 expression, Pre-Treatment Biopsy ([2]; Glioblastoma): 4.58
- CD46 expression diff (post minus pre) ([2]; Ovarian Cancer): −0.11
- Percent Change in CD46 expression ([2]; Ovarian Cancer): −1.9%
- CD46 expression, Post-Treatment Biopsy ([2]; Ovarian Cancer): 5.54
- CD46 expression, Pre-Treatment Biopsy ([2]; Ovarian Cancer): 5.65

Compound: C[C@@H]1C[C@H]2[C@@H]3CCC4=CC(=O)C=C[C@]4(C)[C@@]3(F)[C@@H](O)C[C@]2(C)[C@@]1(O)C(=O)CO [dexamethasone]
- CD46 expression diff [1, 6]: −0.07
- CD46 expression Percentage change [1, 7]: −1.1%
- CD46 expression Post [1, 8]: 6.20
- CD46 expression diff [1, 9]: 0.06
- CD46 expression Percentage change [1, 10]: 1.0%
- CD46 expression Post [1, 11]: 6.44
- CD46 expression diff [1, 15]: 0.00
- CD46 expression Percentage change [1, 16]: 0.0%
- CD46 expression Post [1, 17]: 6.14
- CD46 expression diff ([1]; Ovarian Cancer, post minus pre, unpaired biopsies): −0.22
- CD46 expression Percentage change ([1]; Ovarian Cancer, post vs pre, unpaired biopsies): −3.9%
- CD46 expression Post ([1]; Ovarian Cancer, log2-transformed RNA-seq counts): 5.48
- CD46 expression diff ([1]; Pancreatic Cancer, post minus pre, unpaired biopsies): −0.27
- CD46 expression Percentage change ([1]; Pancreatic Cancer, post vs pre, unpaired biopsies): −4.5%
- CD46 expression Post ([1]; Pancreatic Cancer, log2-transformed RNA-seq counts): 5.75
- CD46 expression diff (post minus pre) ([2]; Colorectal Cancer): −0.19
- Percent Change in CD46 expression ([2]; Colorectal Cancer): −3.0%
- CD46 expression, Post-Treatment Biopsy ([2]; Colorectal Cancer): 5.96
